Laboratory results reported in PubChem BioAssay (NCI).
Several values for one entry are separate records, joined by “and”; a condition that tells them apart may be missing. Equal values may be shown once.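 Briefly, cells in 96-well plates were exposed to five compound concentrations for 48 h, and endpoints were estimated by linear interpolation. Here, GI50 denotes the concentration required for 50% inhibition of growth. The concentration for full growth arrest is given as TGI.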

Legend:
Experiment in all cases: inhibition of tumour cell growth, NCI panel, 48 h
LOX IMVI melanoma = tested on: LOX IMVI melanoma
IGROV1 ovarian = tested on: IGROV1 ovarian
KM12 colon = tested on: KM12 colon
SF-268 CNS = tested on: SF-268 CNS
ACHN renal = tested on: ACHN renal
CAKI-1 renal = tested on: CAKI-1 renal
OVCAR-4 ovarian = tested on: OVCAR-4 ovarian
SF-295 CNS = tested on: SF-295 CNS
UO-31 renal = tested on: UO-31 renal

C/C(=N/Nc1ccc([N+](=O)[O-])cc1[N+](=O)[O-])C(CC(C(=O)Nc1ccccc1C)/C(C)=N\Nc1ccc([N+](=O)[O-])cc1[N+](=O)[O-])C(=O)Nc1ccccc1C (stereo unspecified)
TGI (LOX IMVI melanoma): 36 µM
TGI (IGROV1 ovarian): 32.1 µM
TGI (KM12 colon): 38.5 µM
TGI (SF-268 CNS): 23.7 µM
TGI (ACHN renal): > 49.6 µM
TGI (CAKI-1 renal): 30 µM
TGI (OVCAR-4 ovarian): 15.9 µM
TGI (SF-295 CNS): 33.9 µM
TGI (UO-31 renal): 39.9 µM

O=C1c2ccccc2C(=O)c2c1ccc1c3ccccc3n(Cc3ccccc3)c21
TGI (LOX IMVI melanoma): > 100 µM
TGI (IGROV1 ovarian): > 100 µM
TGI (KM12 colon): > 100 µM
TGI (SF-268 CNS): > 100 µM
TGI (ACHN renal): > 100 µM
TGI (CAKI-1 renal): > 100 µM
TGI (OVCAR-4 ovarian): > 100 µM
TGI (SF-295 CNS): > 100 µM
TGI (UO-31 renal): > 100 µM

O=C1/C(=C/c2ccccc2)CN(C(=O)OCC(Cl)(Cl)Cl)C/C1=C\c1ccccc1
TGI (LOX IMVI melanoma): 2.06 µM
TGI (IGROV1 ovarian): 15.4 µM
TGI (KM12 colon): 3.74 µM
TGI (SF-268 CNS): 15.3 µM
TGI (ACHN renal): 4.68 µM
TGI (SF-295 CNS): 3.92 µM
TGI (UO-31 renal): 12.1 µM

CC[C@@]1(O)C(=O)OCc2c1cc1n(c2=O)Cc2cc3c(NC(C)=O)c(O)ccc3nc2-1
GI50 (LOX IMVI melanoma): 0.497 µM
TGI (LOX IMVI melanoma): 6.31 µM
GI50 (IGROV1 ovarian): 6.27 µM
TGI (IGROV1 ovarian): > 88.5 µM
GI50 (KM12 colon): 14.4 µM
TGI (KM12 colon): > 61.3 µM
GI50 (SF-268 CNS): 0.417 µM
TGI (SF-268 CNS): > 52.3 µM
GI50 (ACHN renal): 0.389 µM
TGI (ACHN renal): 2.85 µM
GI50 (CAKI-1 renal): 0.468 µM
TGI (CAKI-1 renal): 13.7 µM
GI50 (OVCAR-4 ovarian): 14.6 µM
TGI (OVCAR-4 ovarian): 44.7 µM
GI50 (SF-295 CNS): 0.721 µM
TGI (SF-295 CNS): > 32.1 µM
GI50 (UO-31 renal): 1.76 µM
TGI (UO-31 renal): 16.2 µM

CCN1CC2(C)CC[C@@H](OC)C34[C@@H]2[C@H](OC(C)=O)C2(OCO[C@@]25C[C@H](OC)C2C[C@]3(O)[C@@H]5[C@H]2O)[C@H]14
TGI (LOX IMVI melanoma): > 100 µM
TGI (KM12 colon): > 100 µM
TGI (SF-268 CNS): > 100 µM
TGI (CAKI-1 renal): > 100 µM
TGI (OVCAR-4 ovarian): > 100 µM
TGI (SF-295 CNS): > 100 µM
TGI (UO-31 renal): > 100 µM

Cc1cccc(CC(C)(C)C)c1NC(=O)C(=O)C(C(=O)c1ccc2ccccc2c1)C1OC(=O)c2ccccc21 (stereo unspecified)
TGI (LOX IMVI melanoma): 43.9 µM
TGI (IGROV1 ovarian): 46.8 µM
TGI (KM12 colon): 30.3 µM
TGI (SF-268 CNS): 30.6 µM
TGI (ACHN renal): 56.2 µM
TGI (CAKI-1 renal): > 100 µM
TGI (OVCAR-4 ovarian): > 100 µM
TGI (SF-295 CNS): 21.6 µM
TGI (UO-31 renal): 31.1 µM

O=C(OCc1nc2ccc(Br)cc2c(=O)n1-c1ccccc1)c1ccccc1O
TGI (LOX IMVI melanoma): > 100 µM
TGI (IGROV1 ovarian): > 100 µM
TGI (KM12 colon): > 100 µM
TGI (SF-268 CNS): > 100 µM
TGI (ACHN renal): > 100 µM
TGI (CAKI-1 renal): > 100 µM
TGI (OVCAR-4 ovarian): > 100 µM
TGI (SF-295 CNS): > 100 µM
TGI (UO-31 renal): > 100 µM

CCC1NCC(=O)c2c1[nH]c1ccccc21 (stereo unspecified)
TGI (LOX IMVI melanoma): > 100 µM
TGI (IGROV1 ovarian): > 100 µM
TGI (KM12 colon): > 100 µM
TGI (SF-268 CNS): > 100 µM
TGI (ACHN renal): > 100 µM
TGI (CAKI-1 renal): > 100 µM
TGI (OVCAR-4 ovarian): > 100 µM
TGI (SF-295 CNS): > 100 µM
TGI (UO-31 renal): > 100 µM

COC(=O)C(=O)C(C(=O)C(=O)Nc1ccccc1C(N)=O)c1nc2ccc(C(=O)c3ccccc3)cc2[nH]c1=O (stereo unspecified)
TGI (IGROV1 ovarian): > 100 µM
TGI (KM12 colon): > 100 µM
TGI (SF-268 CNS): > 100 µM
TGI (ACHN renal): > 100 µM
TGI (CAKI-1 renal): > 100 µM
TGI (OVCAR-4 ovarian): > 100 µM
TGI (SF-295 CNS): > 100 µM
TGI (UO-31 renal): > 100 µM

COc1ccccc1NC(=O)C(=O)C1C(=O)Nc2ccccc2S1=O (stereo unspecified)
TGI (LOX IMVI melanoma): > 100 µM
TGI (IGROV1 ovarian): > 100 µM
TGI (KM12 colon): > 100 µM
TGI (SF-268 CNS): > 100 µM
TGI (ACHN renal): > 100 µM
TGI (CAKI-1 renal): > 100 µM
TGI (OVCAR-4 ovarian): > 100 µM
TGI (SF-295 CNS): > 100 µM
TGI (UO-31 renal): > 100 µM

O=C1/C(=C/c2ccccc2)CN(C(=O)Oc2ccc([N+](=O)[O-])cc2)C/C1=C\c1ccccc1
GI50 (LOX IMVI melanoma): 1.57 µM
TGI (LOX IMVI melanoma): 1.26 µM and 3.36 µM
GI50 (KM12 colon): 1.88 µM
TGI (KM12 colon): 2.89 µM and 5.49 µM
GI50 (SF-268 CNS): 3.11 µM
GI50 (ACHN renal): 4.94 µM
GI50 (OVCAR-4 ovarian): 1.77 µM
TGI (OVCAR-4 ovarian): 7.87 µM and 4.15 µM
GI50 (SF-295 CNS): 2.07 µM
TGI (SF-295 CNS): 7.93 µM and 4.98 µM

O=C(CC(C(=O)O)N1CCOCC1)c1ccccc1 (stereo unspecified)
TGI (LOX IMVI melanoma): 33.6 µM
TGI (IGROV1 ovarian): 63.2 µM
TGI (SF-268 CNS): 44.6 µM
TGI (ACHN renal): 30.7 µM
TGI (OVCAR-4 ovarian): 43.2 µM
TGI (SF-295 CNS): > 100 µM

COc1ccc(-n2nc(C)c3c2N(C)C2(C)C[C@@H]4C3(C)[C@@H]3CC4(C2)N(C)c2c(c(C)nn2-c2ccc(OC)cc2)[C@H]3C)cc1 (stereo partly specified)
GI50 (IGROV1 ovarian): 19.5 µM
TGI (IGROV1 ovarian): > 100 µM
GI50 (SF-268 CNS): 4.08 µM
TGI (SF-268 CNS): 70.2 µM
GI50 (ACHN renal): 6.13 µM
TGI (ACHN renal): > 100 µM
GI50 (OVCAR-4 ovarian): 5.95 µM
TGI (OVCAR-4 ovarian): > 100 µM

O=C1CC2Sc3ccccc3N=C2N1c1ccc(Cl)cc1Cl (stereo unspecified)
TGI (LOX IMVI melanoma): > 100 µM
TGI (IGROV1 ovarian): > 100 µM
TGI (KM12 colon): > 100 µM
TGI (SF-268 CNS): > 100 µM
TGI (ACHN renal): > 100 µM
TGI (OVCAR-4 ovarian): > 100 µM
TGI (SF-295 CNS): > 100 µM
TGI (UO-31 renal): > 100 µM

Clc1ccccc1C1=NN(c2ccccc2)C2c3cc(Br)ccc3OCC12 (stereo unspecified)
TGI (IGROV1 ovarian): > 100 µM
TGI (KM12 colon): > 100 µM
TGI (SF-268 CNS): > 100 µM
TGI (ACHN renal): > 100 µM
TGI (SF-295 CNS): > 100 µM
TGI (UO-31 renal): > 100 µM

Cc1ns/c(=N\C(=S)N(C)C)n1C
TGI (IGROV1 ovarian): > 100 µM
TGI (KM12 colon): > 100 µM
TGI (SF-268 CNS): > 100 µM
TGI (ACHN renal): > 100 µM
TGI (CAKI-1 renal): > 100 µM
TGI (OVCAR-4 ovarian): > 100 µM
TGI (SF-295 CNS): > 100 µM
TGI (UO-31 renal): > 100 µM

N#CC(=C=[N-])[n+]1ccc(Cl)cc1
TGI (LOX IMVI melanoma): 26.2 µM
TGI (IGROV1 ovarian): 36.4 µM
TGI (KM12 colon): 59.7 µM
TGI (SF-268 CNS): 28.2 µM
TGI (CAKI-1 renal): 10.9 µM
TGI (OVCAR-4 ovarian): 39.8 µM
TGI (SF-295 CNS): 38.9 µM
TGI (UO-31 renal): 59.9 µM

O=C1c2cccc3cccc(c23)C(=O)N1CCCN1CCN(CCCN2C(=O)c3cccc4cccc(c34)C2=O)CC1
TGI (LOX IMVI melanoma): > 100 µM
TGI (IGROV1 ovarian): > 100 µM
TGI (KM12 colon): > 100 µM
TGI (ACHN renal): > 100 µM
TGI (CAKI-1 renal): > 100 µM
TGI (OVCAR-4 ovarian): > 100 µM
TGI (SF-295 CNS): > 100 µM
TGI (UO-31 renal): > 100 µM
